Measured values taken from US20140318000A1, “COMBINING ALGAE CULTIVATION AND CO2 CAPTURE” (Nederlandse Organisatie voor …, priority 2011, published 2014).
Entries after “also recorded” stand apart in the source; their conditions may differ.

Legend:
Spirulina platensis = test: Growth of Spirulina platensis (dry algae density) in growth medium combined with absorbent liquid loaded with CO2; type: cell-based
Procedure: For the absorbent liquids standard procedures were used to prepare the solvent solutions. For the absorbent liquids stock solutions with a molarity of 2 M were prepared. To test the growth, the molarities of the solutions were adjusted at the start of the experiments by adding a given amount of the aqueous growth medium.
The growth of the algae was tested with different solutions composed from different ratios (volume based) of growth media and absorbent liquid.
Subsequently, a number of dedicated experiments were performed were a specific algae (and growth medium) was combined with a given absorbent liquid in the presence of CO2. The CO2 was added in two different ways.
In the first way, so-called batch operation, the algae, growth medium, and the absorbent liquid (with a given molarity) were prepared in a beaker (of about 1 l) or reactor (available with a volume of 10 l and 20 l) and the CO2 was bubbled through for at least 12 h to saturate the solution with a high flow rate (in the order of 200 ml/min).
During the experiments the pH was measured on a daily basis.
At given times a small sample was taken from the beaker (or reactor) to analyse the micro-algae. The volume of the sample was determined, the sample was then dried in an oven, and subsequently the mass determined (by weighing) to obtain the dry algae density (g/l).
For various tests, Arthrospira (Spirulina) platensis was used. The Spirulina strain is kept in Schlösser's medium (Schlösser, Berichten der Deutchen Botanischen Gesellschaft 1982, 95, 181-276). Schlösser's medium contained per litre: 13.6 g of NaHCO3, 4.03 g of Na2CO3, 0.5 g of K2HPO4, 2.5 g of NaNO3, 1 g of K2SO4, 1 g of NaCl, 0.2 g of MgSO4.7H2O, 0.04 g of CaCl2.2H2O, 0.01 g of FeSO4.7H2O, and 0.08 g of EDTA (ethylenediaminetetraacetic). Some micronutrients are added as well.
The overall composition based on 1 l of total solution was obtained by combining: 400 ml of the growth medium, for example the Schlösser's medium, with 400 ml of an aqueous amino acids salts, with as ‘counter ion’ potassium hydroxide, solution, where the amount of amino acid was varied between 0.1 M and 1 M. Subsequently, 200 ml of algae solution was added.

[1] = CO2 uptake in absorbent liquid in a sealed beaker fed continuously with flue gas, online CO2 analyser; type: physicochemical; conditions: 0.2 M taurine, 4 l liquid, flue gas 7.2% CO2, total period 100 000 s
Procedure: CO2 is fed continuously to a sealed beaker with water and with an absorp absorbent liquid (0.2 M taurine). The height of the liquids is 30 cm the total amount of liquids is 4 l. For water the uptake, that is the amount of CO2, in %, leaving the beaker as function of the time, is given for two flow rates. […] In FIG. 4, the CO2 concentration, in %, leaving the beaker as function of time is depicted. Experiments were conducted in a sealed beaker, where flue gas was fed, and where the gaseous stream leaving the beaker was analysed with an online CO2 analyser. The composition of the ‘flue gas’ was 7.2% CO2 and […].

For NCCS(=O)(=O)O [taurine, 2-aminoethanesulphonic acid], the dry algae density (Spirulina platensis; Spirulina platensis, 0.1 M taurine as absorbent liquid) was “about 2 g/l”, the “dry algae density, initial constant level” value (Spirulina platensis; Spirulina platensis, 0.2 M taurine, solution saturated with CO2 at start, before reloading at day 20) was “about 1.4 g/l” and the “final dry algae density” value (Spirulina platensis; Spirulina, 0.2 M taurine initially saturated with CO2, after about 15 days) was 2.1 g/L. The “dry algae density after growth period” value (Spirulina platensis; Spirulina, 0.2 M taurine initially saturated with CO2, increase from 0.25 g/l in about 5 days after start-up) was 1.7 g/L and the “CO2 leaving the beaker” value [1] was “no CO2 was measured; also recorded: almost no CO2 is leaving the beaker”.
